Source: patent US9241964B2, “Composition from Sphaeranthus indicus and Garcinia mangostana for the control of metabolic syndrome” (LAILA NUTRACEUTICALS, priority 2009, dated 2016)
In brackets after ≈: the same amount, converted by molar mass.

Tested on: Matrix Metalloproteinase-3 (MMP-3)
Experiment: Inhibition of MMP-3 production in IL-1β induced A549 cells (ELISA)
Format: cell-based
Conditions: 10 ng/mL IL-1β induced A549 human lung tumor cells, 24 h, supernatant ELISA
Method: A549 cells were induced with 10 ng/ml human IL-1β in absence or presence of different concentrations of LI/DD-II/054A/01 for 24 h as indicated. Secreted MMP-3 concentration in the cell free culture supernatants was measured using MMP-3 ELISA Development Kit (R&D System, Minneapolis, Minn., USA). The MMP-3 concentration in culture supernatants was estimated quantitatively from the standard curve generated using known concentrations of MMP-3. Percentage of MMP-3 inhibition at each concentration of test compound was calculated from the formula: {(Conc. of MMP-3 in IL-1β induced−Conc. of MMP-3 in the test well)×100}÷Conc. of MMP-3 in IL-1β induced wells.
MMP-3 was evaluated in Interleukin-1β induced human lung tumor cell line A549. Briefly, the cells were cultured in DMEM with 2 mM Glutamine, 100 U/mL penicillin, […] streptomycin and 10% fetal bovine serum (Hyclone, Logan, Utah). Five thousand cells per well were seeded into a 96-well cell culture plate (Corning, USA) one day before the experiment. The culture media was replaced with fresh DMEM containing 10% fetal bovine serum. […] The MMP-3 concentration in culture supernatant was estimated quantitatively by interpolating the optical densities into the standard curve generated from known concentrations of MMP-3. […]

C=C1C(=O)O[C@H]2C3=C(C)CCC[C@]3(C)CC[C@@]12O [LI054A01, 7-α-hydroxy-4,11(13)-eudesmadien-12,6-olide]
IC50 against MMP-3: 0.075 µg/mL (≈ 0.302 µM)
